Read-outs that look alike come from different tables or passages of the source.
Key:
[1] = test system: Resistant Cotton Melon Aphid (Aphis gossypii); type: in vivo
[2] = test system: Green Peach Aphid (Myzus persicae); type: in vivo
[3] = test system: 2-spotted Spider Mite (Tetranychus urticae); assay: Insecticidal test on 2-spotted spider mite, kidney bean leaf disc with eggs, hatchability of larvae after 6 days; type: in vivo; details: 6 days after spraying
Protocol: Insecticidal Test on 2-spotted Spider Mite (Tetranychus urticae)
A plastic cup having a diameter of 8 cm was filled with water and covered by a lid with a hole having a diameter of 1 cm. Absorbent cotton was put on the top of the lid and dropped into water from the lid such that the absorbent cotton was always in a wet state due to a capillary phenomenon. A leaf disc having a diameter of 2 cm was prepared with primary leaves of kidney beans (cultivar: Green top) and placed on the aforementioned absorbent cotton. 4 adult female insects of Tetranychus urticae were inoculated thereon. Next day, the adult female insects were removed, and then the number of insect egg was examined. A liquid chemical which was prepared to the prescribed concentration was sprayed by using a vertical sprayer. After spraying, the resulting cup was allowed to stand in an isothermal chamber maintained at 25 degree centigrade. After 6 days from spraying, the number of hatched larvae that survived on the leaf disc was examined and the hatchability of larvae was calculated (two replications of one concentration per chemical).

[4] = test system: Small Brown Planthopper (Laodelphax striatellus); assay: Insecticidal test on small brown planthopper, sprayed rice seedlings, mortality after 6 days; type: in vivo
Protocol: Insecticidal Test on Small Brown Planthopper (Laodelphax striatellus)
A liquid chemical which was diluted and prepared to the prescribed concentration was sprayed on rice seedlings (cultivar: koshihikari), air-dried, and then 10 three-stage insects of Laodelphax striatellus were put into a glass test tube having a diameter of 3 cm and a height of 10 cm along with the seedlings. The test tube was cotton plugged. After 6 days from the treatment, the number of surviving insects was examined and the mortality was calculated (two replications of 10 insects per plot).

[5] = test system: Tiger Moth (Trichoplusia ni); assay: Insecticidal test on tiger moth, cabbage leaf dip, mortality after 6 days; type: in vivo; details: 6 days after treatment
Protocol: Insecticidal Test on Tiger Moth (Trichoplusia ni)
Cut leaves of cabbages (cultivar: shiki-kaku) were immersed in a liquid chemical which was diluted and prepared to the prescribed concentration for 30 seconds, air-dried, and then put into a plastic vessel having a diameter of 9 cm. Each of 10 second-stage insects of Trichoplusia ni was inoculated and the resulting vessel was allowed to stand in an isothermal chamber maintained at 25 degree centigrade. After 6 days from the treatment, the number of surviving insects was examined and the mortality was calculated (two replications of 10 insects per plot).

[6] = test system: Rice Striped Stem Borer (Chilo suppressalis)
[7] = test system: Rice Blast (Pyricularia oryzae); type: in vivo
[8] = test system: Sheath Blight (Rhizoctonia solani); assay: Control test on sheath blight of paddy rice, powder spray, rate of infected stumps after 30 days; type: in vivo; details: 30 days after spraying
From the text: (§1) Control Test on Common Straight Swift Butterfly (Parnara guttata) and Sheath Blight (Rhizoctonia solani) of Paddy Rice
(§2) A powder of a prescribed amount was sprayed on rice (cultivar: koshihikari) after 70 days from the transplantation (middle of May) Leaves on which Parnara guttata was parasitic before spraying were eliminated. After 20 days from spraying, the number of insects was examined for 100 stumps in each plot. Furthermore, 7 days before spraying, Rhizoctonia solani cultured on a bran medium was inoculated into the base of the plant. After 30 days from spraying, the number of infected stumps was examined for 100 stumps in each plot and the rate of infected stumps was calculated. In the Table, gai represents the amount of active ingredients (g).

[9] = test system: Common Straight Swift Butterfly (Parnara guttata); assay: Control test on common straight swift butterfly of paddy rice, powder spray, number of insects after 20 days (Test Example 9); type: in vivo; details: 20 days after spraying
From the text: as §1, §2

[10] = 250 ppm, foliar spray on cucumber, 5 days after spraying
[11] = 250 ppm, foliar spray on eggplant, 5 days after spraying
[12] = 100 ppm, foliar spray on cucumber, 5 days after spraying
[13] = 100 ppm, foliar spray on eggplant, 5 days after spraying
[14] = 3 ppm, foliar spray on cucumber, 5 days after spraying
[15] = 3 ppm, foliar spray on eggplant, 5 days after spraying
[16] = 3 ppm, sprayed rice seedlings, 6 days after treatment
[17] = Laodelphax striatellus, 144 h, 25 ppm, sprayed rice seedlings, 6 days after treatment

CNC(=O)ON=C(C)SC [methomyl]
Control rate (%) [1, 10]: 10% | Control rate (%) [2, 11]: 96%

CC(C)(C)c1ccc(CSc2cnn(C(C)(C)C)c(=O)c2Cl)cc1 [pyridaben]
Hatchability of larvae (%) ([3]; 2 ppm): 48%

COP(=S)(OC)Oc1ccc([N+](=O)[O-])c(C)c1 [fenitrothion]
mortality at 100 ppm ([4]; Laodelphax striatellus, 144 h): 85%

N#CCNC(=O)c1cnccc1C(F)(F)F [flonicamid]
Control rate (%) [1, 12]: 97% | Control rate (%) [2, 13]: 97% | Mortality (%) ([4]; 20 ppm, sprayed rice seedlings, 6 days after treatment): 95%

COc1ccc(-c2ccccc2)cc1NNC(=O)OC(C)C [bifenazate]
Hatchability of larvae (%) ([3]; 5 ppm): 60%

CN(C(=O)c1ccccc1F)c1cccc(C(=O)N(C)c2c(Br)cc(SC(F)(F)C(F)(F)C(F)(F)F)cc2Br)c1 [Compound 1617]
Control rate (%) [1, 14]: 5% | Control rate (%) [2, 15]: 0% | Hatchability of larvae (%) ([3]; 50 ppm): 78% | Mortality (%) [4, 16]: 5% | Mortality (%) ([5]; 0.5 ppm): 75%

C[C@@H](NC(=O)C(C#N)C(C)(C)C)c1ccc(Cl)cc1Cl (some centres unmarked) [diclocymet]
Chilo suppressalis Mortality (%) ([6]; 1.5 gai/box): 0% | Pyricularia oryzae Control value ([7]; 1.5 gai/box): 95

CC(C)Oc1cccc(NC(=O)c2ccccc2C(F)(F)F)c1 [flutolanil]
Rate of infected stumps (%) ([8]; 80 gai/10a): 2% | Number of insects (number/100 stumps) ([9]; 80 gai/10a): 153 number/100 stumps

CCCCCCCCCCCCC1=C(OC(C)=O)C(=O)c2ccccc2C1=O [acequinocyl]
Hatchability of larvae (%) ([3]; 5 ppm): 29%

Cc1nn(C)c(Cl)c1C(=O)Nc1cccc2c1C(C)OC2(C)C (centres unmarked) [furametpyr]
Rate of infected stumps (%) ([8]; 20 gai/10a): 2% | Number of insects (number/100 stumps) ([9]; 20 gai/10a): 161 number/100 stumps

CCC(C)(C)C(=O)OC1=C(c2ccc(Cl)cc2Cl)C(=O)OC12CCCCC2 [spirodiclofen]
Hatchability of larvae (%) ([3]; 3 ppm): 50%

Cc1cccc2sc3nncn3c12 [tricyclazole]
Chilo suppressalis Mortality (%) ([6]; in vivo): 5% | Pyricularia oryzae Control value ([7]; 2 gai/box): 95

Cc1c(Cl)cc(-c2ccc(=O)[nH]n2)cc1Cl [diclomezine]
Rate of infected stumps (%) ([8]; 48 gai/10a): 3% | Number of insects (number/100 stumps) ([9]; 48 gai/10a): 167 number/100 stumps

Cc1cc(C(F)(C(F)(F)F)C(F)(F)F)cc(C)c1NC(=O)c1cccc(N(C)C(=O)c2ccc(C#N)cc2)c1F [Compound 1217]
Chilo suppressalis Mortality (%) ([6]; 5 gai/box): 90% | Control rate (%) [1, 14]: 15% | Control rate (%) [2, 15]: 21% | Hatchability of larvae (%) ([3]; 50 ppm): 74% | Mortality (%) [4, 16]: 15% | Pyricularia oryzae Control value ([7]; in vivo): 7 | Mortality (%) ([5]; 0.5 ppm): 65%

CCOc1ccc([Si](C)(C)CCCc2ccc(F)c(Oc3ccccc3)c2)cc1 [silafluofen]
mortality at 25 ppm [4, 17]: 95%

CN(C(=O)c1ccccc1)c1cccc(C(=O)Nc2c(Br)cc(SC(F)(F)C(F)(F)C(F)(F)F)cc2Br)c1 [Compound 1126]
Control rate (%) [1, 14]: 3% | Control rate (%) [2, 15]: 0% | Hatchability of larvae (%) ([3]; 50 ppm): 73% | Mortality (%) [4, 16]: 10% | Mortality (%) ([5]; 0.5 ppm): 70%

CNC(=O)/C(=N/OC)c1ccccc1CO/N=C(C)/C(=N/OC)C(/C)=N/OC [orysastrobin]
Chilo suppressalis Mortality (%) ([6]; 3.5 gai/box): 5% | Pyricularia oryzae Control value ([7]; 3.5 gai/box): 93

Cc1cc(C(F)(C(F)(F)F)C(F)(F)F)cc(C)c1NC(=O)c1cccc(N(C)C(=O)c2cccc(F)c2)c1F [Compound 1219]
Control rate (%) [1, 14]: 15% | Control rate (%) [2, 15]: 17% | Hatchability of larvae (%) ([3]; 50 ppm): 80% | Mortality (%) [4, 16]: 10% | Mortality (%) ([5]; 0.5 ppm): 65%

CN/C(=N/CC1CCOC1)N[N+](=O)[O-] (centres unmarked) [dinotefuran]
Control rate (%) ([1]; in vivo): 98% | Control rate (%) ([2]; in vivo): 99% | mortality at 5 ppm ([4]; Laodelphax striatellus, 144 h, 5 ppm, sprayed rice seedlings, 6 days after treatment): 95% | mortality at 3 ppm ([5]; Trichoplusia, foliar, 144 h, 3 ppm): 40%

CN(C(=O)c1cccc(NC(=O)c2ccccc2)c1)c1c(Br)cc(SC(F)(F)C(F)(F)C(F)(F)F)cc1Br [Compound 1480]
Control rate (%) [1, 14]: 3% | Control rate (%) [2, 15]: 7% | Hatchability of larvae (%) ([3]; 50 ppm): 85% | Mortality (%) [4, 16]: 10% | Mortality (%) ([5]; 0.5 ppm): 75%

CC(C)([CH2][Sn]([CH2]C(C)(C)c1ccccc1)([CH2]C(C)(C)c1ccccc1)[O][Sn]([CH2]C(C)(C)c1ccccc1)([CH2]C(C)(C)c1ccccc1)[CH2]C(C)(C)c1ccccc1)c1ccccc1 [fenbutatin oxide]
Hatchability of larvae (%) ([3]; 25 ppm): 42%

N#Cc1nn(-c2c(Cl)cc(C(F)(F)F)cc2Cl)c(N)c1[S+]([O-])C(F)(F)F (centres unmarked) [fipronil]
mortality at 0.5 ppm ([5]; Trichoplusia, foliar, 144 h, 0.5 ppm): 55%

CCOc1ccc(C(C)(C)COCc2cccc(Oc3ccccc3)c2)cc1 [ethofenprox]
Control rate (%) [1, 12]: 75% | Control rate (%) [2, 13]: 98% | Mortality (%) ([4]; 25 ppm, sprayed rice seedlings, 6 days after treatment): 95% | Mortality (%) ([5]; 3 ppm): 45%

milbemectin
Hatchability of larvae (%) ([3]; 5 ppm): 18%

CC1=NNC(=O)N(/N=C/c2cccnc2)C1 [pymetrozine]
Control rate (%) [1, 12]: 95% | Control rate (%) [2, 13]: 96% | mortality at 25 ppm [4, 17]: 95%

CCOc1cc(C(C)(C)C)ccc1C1COC(c2c(F)cccc2F)=N1 (centres unmarked) [etoxazol]
Hatchability of larvae (%) ([3]; 0.1 ppm): 33%

CC[S+]([O-])c1c(C#N)nn(-c2c(Cl)cc(C(F)(F)F)cc2Cl)c1N (centres unmarked) [ethiprole]
Control rate (%) [1, 12]: 96% | Control rate (%) [2, 13]: 98% | mortality at 25 ppm [4, 17]: 90%

Cc1cc(C(F)(C(F)(F)F)C(F)(F)F)cc(C)c1NC(=O)c1cccc(NC(=O)c2cccnc2Cl)c1 [Compound No. 106, N-(2,6-dimethyl-4-heptafluoroisopropyl)phenyl 3-[(2-chloropyridin-3-yl)carbonylamino]benzamide]
Chilo suppressalis Mortality (%) ([6]; 5 gai/box): 90% | Pyricularia oryzae Control value ([7]; in vivo): 5

CC(C)OC(=O)C(C(=O)OC(C)C)=C1SCCS1 [Isoprothiolane]
Chilo suppressalis Mortality (%) ([6]; 6 gai/box): 0% | Pyricularia oryzae Control value ([7]; 6 gai/box): 92

spinosad
Mortality (%) ([5]; 0.1 ppm): 60%

C=CCOC1=NS(=O)(=O)c2ccccc21 [probenazole]
Chilo suppressalis Mortality (%) ([6]; 12 gai/box): 5% | Pyricularia oryzae Control value ([7]; 12 gai/box): 94

CC(C)N1C(=O)N(c2ccccc2)CS/C1=N\C(C)(C)C [buprofezin]
mortality at 25 ppm [4, 17]: 95%

COP(=O)(NC(C)=O)SC (centres unmarked) [acephate]
Control rate (%) [1, 10]: 0% | Control rate (%) [2, 11]: 97%

O=C(Nc1ccccc1)N(Cc1ccc(Cl)cc1)C1CCCC1 [pencycuron]
Rate of infected stumps (%) ([8]; 60 gai/10a): 1% | Number of insects (number/100 stumps) ([9]; 60 gai/10a): 159 number/100 stumps

— patent US8163804B2 (priority 2005, dated 2012)
